Assay [1] concerns Neurospora crassa. The experiment in a line: Comparative plate diffusion test with other conventional antifungal substances (Example 5 (1)). Type of assay: cell-based. As for the experimental part:
(§1) Respectively, 10 μg of the corresponding antibiotics is pipetted in the form of a methanolic solution on the filter plates and, after drying, placed on a nutrient substrate inoculated with Neurospora crassa spores.

Assay [2] deals with Neurospora crassa. Briefly: Comparative plate diffusion test with membrane-modifying peptide antibiotics (Example 5 (2)). The note with it: 10 μg/plate; in words. Type of assay: cell-based. Here is the method: as §1
(2) In the same manner, various membrane-modifying peptide antibiotics are comparison-tested with herbicolin A:
Trichotoxin A 40, Suzukazillin, Alamethicin F 50, and herbicolin A, respectively, 10 μg/plate.

Structures are written as SMILES. Where a SMILES comes first, the peptide text is derived from it. [ ]: non-standard residue; d: D form. Phe(ol) = N[C@H](CO)Cc1ccccc1; Aib = CC(C)(N)C(=O)O

For `C[C@@H]1[C@H](O)[C@@H](C)/C=C/C=C/C=C/C=C/C=C/C=C/C=C/[C@H](O[C@@H]2O[C@H](C)[C@@H](O)[C@H](N)[C@@H]2O)C[C@@H]2O[C@](O)(C[C@@H](O)C[C@@H](O)[C@H](O)CC[C@@H](O)C[C@@H](O)CC(=O)O[C@H]1C)C[C@H](O)[C@H]2C(=O)O` [amphotericin], in the assay with Neurospora crassa [1] (Neurospora crassa, 18 h, read-out: inhibition zone), the zone of inhibition at 10 µg/disc is approximately 10 mm.

Regarding `COC1=CC(=O)C[C@@H](C)[C@]12Oc1c(Cl)c(OC)cc(OC)c1C2=O` [griseofulvin], the inhibition zone entry in the assay on Neurospora crassa [1] (10 μg on filter plate, 18 hours, 27° C.) is reported as “no inhibition zone”.

For `CC(=O)NC(C)(C)C(=O)N1CCC[C@H]1C(=O)NC(C)(C)C(=O)N[C@@H](C)C(=O)NC(C)(C)C(=O)N[C@@H](C)C(=O)N[C@@H](CCC(N)=O)C(=O)NC(C)(C)C(=O)N[C@H](C(=O)NC(C)(C)C(=O)NCC(=O)N[C@@H](CC(C)C)C(=O)NC(C)(C)C(=O)N1CCC[C@H]1C(=O)N[C@H](C(=O)NC(C)(C)C(=O)NC(C)(C)C(=O)N[C@@H](CCC(=O)O)C(=O)N[C@@H](CCC(N)=O)C(=O)N[C@H](CO)Cc1ccccc1)C(C)C)C(C)C` [Alamethicin] (Ac-[Aib]P[Aib]A[Aib]AQ[Aib]V[Aib]GL[Aib]PV[Aib][Aib]EQ[Phe(ol)]), in the assay with Neurospora crassa [2], the inhibition zone entry is given as “only a weak inhibition zone”.

The values above are taken from patent US4338302A, “Herbicolin and microbiological method for the preparation thereof” (priority 1979, dated 1982).
